Source: patent US6951647B2, “T cell binding ligand peptides and method of inducing a cellular immune response” (Cel-Sci Corporation, priority 2001, dated 2005)
“And” between values parts separate entries of the source, which are not always exact repeats. Equal values may be shown once.

Assays:
modified HGP-30 = assay: ELISA for antibody after antisera depletion of CD4 or CD8 cells (FIG. 2); type: in vivo, Mice; conditions: pretreatment with anti-CD4, day 28, p=0.002 (FIG. 2)
Excerpt: Select immunoglobulin preparations were obtained from Dr. Stephen Hoffmann, Malaria Program, U.S. Navy. […] This allows one to determine some parts of the nature of various cellular (e.g., T-cell) involvement in the early stage of immune system response with the LEAPS peptide-constructs. It is recognized, however, that this is only a temporary event since new cells are continuously being developed from stem cells and the animals become resistant to the reagents.
The animals are pretreated with the antisera as indicated for 5 days before the initial immunization with peptide-construct having SEQ ID NO:37 or SEQ ID NO:39 on […]. No pretreatment is done before the booster immunization on day 14 or DTH on day 26-28. The mice are then inoculated with the test antigen or saline (control) on day 26 in the left and right ears, respectively, and the DTH response is measured on day 28. The difference between the values for the test and saline control ears is calculated for each group of five animals along with the standard error of the mean (sem) and the results are plotted (see FIG. 1). Also shown in FIG. 1 are values for the untreated animals and animals immunized on day 14 only.
This example is similar to Example 2 but using a more sensitive ELISA test for antibody type. […] This was not the case, however, with pretreatment using anti-CD8 or normal rat IgG. […]

E Clade = assay: ELISA cross clade recognition by sera of immunized mice, E Clade; type: in vivo; conditions: day 42 test bleeding, individual mouse
D Clade [1] = assay: ELISA cross clade recognition by sera of immunized mice, D Clade; type: in vivo; conditions: day 42 test bleeding, individual mouse
Peptide G = assay: Specificity analysis for the TCBL carrier, ELISA plates coated with Peptide G; type: in vivo, Mice; conditions: for A 490 1:200 dilution on plates coated with Peptide G: Average
Description: (§1) Mice in groups (5-10 animals per group as designated) are immunized with the LEAPS constructs (25 μg/dose) of SEQ ID NO's:37, 38 and 39, in 0.2 mL emulsified 1:1 with adjuvant (Seppic's ISA-51 or Corixa's microfluidized MPL S/E) on days 0 and 14. Mice are evaluated by Delayed Type of Hypersensitivity (DTH) by inoculation on day 26 with 20 μl of a solution of saline or mH (SEQ ID NO:6) (25 μg in saline) in the left or right ear respectively. The DTH response is determined by measurement of the ear thickness 48 hours later and expressed as increase in ear thickness (mm) of experimental ear compared to that of the control ear. Individual animal sera are collected for measurement of antibody on day 28, 42, 63 and 77. Sera from individual animals and group pools are evaluated for specific anti-mH antibody, for total antibody, IgG1, IgG2a and IgG3 antibody isotype and cross clade titer at selected time points as indicated.
A specificity analysis for the TCBL or KLH carrier for pools of day 42 test bleedings from the G-mH, G′-mH and mH/KLH, using either MPL S/E or ISA51 as adjuvant, was carried out (all sera assayed at a dilution of 1:200) and the results are shown in Table 5. […] This observation is especially significant for vaccines used on a repetitive basis, such as, either a vaccine that requires more frequent intervals between boosters for maintenance of cellular reactivity or as a therapeutic vaccine.

[2] = tested on: modified HGP-30 (mH, SEQ ID NO:6); assay: Isotype analysis (ELISA) of anti-mH antibody in sera of immunized mice; type: in vivo; parameters: IgG1 / IgG2a / IgG2b / IgG3: unit not given here; conditions: for IgG1 / IgG2a / IgG2b / IgG3: ELISA signal, day 42 test bleeding; for Ig1, serial dilution 1:200 / Ig1, serial dilution 1:800 / Ig1, serial dilution 1:3200 / Ig1, serial dilution 1:12800 / Ig1, serial dilution 1:51200 / Ig1, serial dilution 1:204800 / Ig2a, serial dilution 1:200 / Ig2a, serial dilution 1:800 / Ig2a, serial dilution 1:3200 / Ig2a, serial dilution 1:12800 / Ig2a, serial dilution 1:51200 / Ig2a, serial dilution 1:204800 / Ig2b, serial dilution 1:200 / Ig2b, serial dilution 1:800 / Ig2b, serial dilution 1:3200 / Ig2b, serial dilution 1:12800 / Ig2b, serial dilution 1:51200 / Ig2b, serial dilution 1:204800 / Ig3, serial dilution 1:200 / Ig3, serial dilution 1:800 / Ig3, serial dilution 1:3200 / Ig3, serial dilution 1:12800 / Ig3, serial dilution 1:51200 / Ig3, serial dilution 1:204800: day 28 pool
Description: as §1
The results of an isotype analysis of day 42 test bleedings with G′-mH (SEQ ID NO:37), G-mH (SEQ ID NO:38), J-mH (SEQ ID NO:39), F-mH (SEQ ID NO:40) and F-HGP-30 (SEQ ID NO:41), are shown in Table 1.
An isotype analysis for pools of day 28 test bleedings G-mH, G′-mH and m-HGP-30/KLH using either MPL S/E or ISA51 as adjuvant, are shown in Table 3.

D Clade [3] = assay: ELISA cross clade recognition by sera of immunized mice, D Clade; type: in vivo; conditions: for ELISA test antigen D Clade: day 42 test bleeding, Group Average
Description: as §1
(§2) The mouse sera for the ELISA was used at a dilution of 1:200. Again, clearly, the construct provides higher signals indicative of higher levels of the antibodies that recognized other clades besides the parental one (Clade B) of mH.
(§3) A cross clade analysis for pools of day 42 test bleedings from the same groups as used in Table 3, were obtained and the results are shown in Table 4.

C Clade = assay: ELISA cross clade recognition by sera of immunized mice, C Clade; type: in vivo; conditions: for ELISA test antigen C Clade: day 42 test bleeding
Description: as §1, §2, §3

[4] = group without '(with MPL)' (ISA51)
[5] = day 63 test bleeding, sera 1:200, individual mouse

DGQ EEK AGV VST GLI GGG ATL YSV HQR IDV KDT KEA LEK IEE EQN KS (DGQEEKAGVVSTGLIGGGYLSGANLNL) [SEQ ID NO: 57, Peptide G′ linked by GGG spacer to modified HGP-30 (mH)]
Antibody detection by ELISA after antisera depletion (modified HGP-30): completely eliminated any antibodies from being detected | ELISA test antigen E Clade (E Clade; group (A)): 0.092 and 0.000 (3×) and 0.018 and 0.101 | ELISA test antigen E Clade (E Clade; group (B)): 0.000 (2×) and 0.054 and 0.358 and 0.113 and 0.037 | ELISA test antigen D Clade (D Clade [1]; group (A)): 0.052 and 0.000 (2×) and 0.010 and 0.003 and 0.114 | ELISA test antigen D Clade (D Clade [1]; group (B)): 0.087 and 0.095 and 0.185 and 1.799 and 1.727 and 0.637 | A 490 1:200 dilution on plates coated with Peptide G (Peptide G; day 42, first set of groups): 0.080 A 490 | A 490 1:200 dilution on plates coated with Peptide G (Peptide G; day 42, second set of groups): 0.062 A 490 | Reactivity toward the delivery vehicle TCBL (Peptide G; day 42 sera at 1:200, Table 5, in words): minimal reactivity | IgG1 ([2]; group Average): 2.667 | IgG2a ([2]; group Average): 1.427 | IgG2b ([2]; group Average): 1.695 | IgG3 ([2]; group Average): 1.562 | IgG1 ([2]; individual mouse): 2.577 and 2.623 and 2.588 and 2.601 and 2.757 and 2.886 and 2.768 and 2.574 and 2.628 and 2.671 | IgG2a ([2]; individual mouse): 1.399 and 1.302 and 1.630 and 0.467 and 1.249 and 2.275 and 0.998 and 1.693 (2×) and 1.566 | IgG2b ([2]; individual mouse): 2.050 and 1.588 and 1.735 and 0.534 and 1.261 and 2.717 and 1.656 and 2.009 and 1.613 and 1.785 | IgG3 ([2]; individual mouse): 1.853 and 1.268 and 1.856 and 1.229 and 2.186 and 1.921 and 1.276 and 2.181 and 0.672 and 1.183 | Ig1, serial dilution 1:200 [2, 4]: 3.006 | Ig1, serial dilution 1:800 [2, 4]: 2.441 | Ig1, serial dilution 1:3200 [2, 4]: 1.755 | Ig1, serial dilution 1:12800 [2, 4]: 1.069 | Ig1, serial dilution 1:51200 [2, 4]: 0.367 | Ig1, serial dilution 1:204800 [2, 4]: 0.114 | Ig2a, serial dilution 1:200 [2, 4]: 0.729 | Ig2a, serial dilution 1:800 [2, 4]: 0.218 | Ig2a, serial dilution 1:3200 [2, 4]: 0.068 | Ig2a, serial dilution 1:12800 [2, 4]: 0.025 | Ig2a, serial dilution 1:51200 [2, 4]: 0.015 | Ig2a, serial dilution 1:204800 [2, 4]: 0.008 | Ig2b, serial dilution 1:200 [2, 4]: 1.420 | Ig2b, serial dilution 1:800 [2, 4]: 0.505 | Ig2b, serial dilution 1:3200 [2, 4]: 0.134 | Ig2b, serial dilution 1:12800 [2, 4]: 0.054 | Ig2b, serial dilution 1:51200 [2, 4]: 0.014 | Ig2b, serial dilution 1:204800 [2, 4]: 0.000 | Ig3, serial dilution 1:200 [2, 4]: 1.132 | Ig3, serial dilution 1:800 [2, 4]: 0.358 | Ig3, serial dilution 1:3200 [2, 4]: 0.092 | Ig3, serial dilution 1:12800 [2, 4]: 0.020 | Ig3, serial dilution 1:51200 [2, 4]: 0.004 | Ig3, serial dilution 1:204800 [2, 4]: 0.000 | Ig1, serial dilution 1:200 ([2]; with MPL): 2.642 | Ig1, serial dilution 1:800 ([2]; with MPL): 1.638 | Ig1, serial dilution 1:3200 ([2]; with MPL): 0.652 | Ig1, serial dilution 1:12800 ([2]; with MPL): 0.279 | Ig1, serial dilution 1:51200 ([2]; with MPL): 0.091 | Ig1, serial dilution 1:204800 ([2]; with MPL): 0.014 | Ig2a, serial dilution 1:200 ([2]; with MPL): 1.961 | Ig2a, serial dilution 1:800 ([2]; with MPL): 0.899 | Ig2a, serial dilution 1:3200 ([2]; with MPL): 0.263 | Ig2a, serial dilution 1:12800 ([2]; with MPL): 0.081 | Ig2a, serial dilution 1:51200 ([2]; with MPL): 0.028 | Ig2a, serial dilution 1:204800 ([2]; with MPL): 0.005 | Ig2b, serial dilution 1:200 ([2]; with MPL): 1.872 | Ig2b, serial dilution 1:800 ([2]; with MPL): 0.881 | Ig2b, serial dilution 1:3200 ([2]; with MPL): 0.253 | Ig2b, serial dilution 1:12800 ([2]; with MPL): 0.104 | Ig2b, serial dilution 1:51200 ([2]; with MPL): 0.011 | Ig2b, serial dilution 1:204800 ([2]; with MPL): 0.006 | Ig3, serial dilution 1:200 ([2]; with MPL): 1.965 | Ig3, serial dilution 1:800 ([2]; with MPL): 0.805 | Ig3, serial dilution 1:3200 ([2]; with MPL): 0.215 | Ig3, serial dilution 1:12800 ([2]; with MPL): 0.045 | Ig3, serial dilution 1:51200 ([2]; with MPL): 0.005 | Ig3, serial dilution 1:204800 ([2]; with MPL): 0.000 | Levels of TH1 preferred isotypes relative to TH2 isotype (IgG1) ([2]; day 42 test bleedings, Table 1, in words): significantly higher signals | ELISA test antigen D Clade (D Clade [3]; group (A)): 0.030 | ELISA test antigen D Clade (D Clade [3]; group (B)): 0.755 | ELISA signal on D Clade (D Clade [3]; [5]): 1.527 and 0.438 and 0.408 and 0.125 and 1.471 and 0.772 and 1.328 and 1.370 and 0.000 and 0.374 | ELISA test antigen C Clade (C Clade; group (A), Group Average): 0.712 | ELISA test antigen C Clade (C Clade; group (A), individual mouse): 0.616 and 0.000 and 0.518 and 0.920 and 0.767 and 1.454 | ELISA test antigen C Clade (C Clade; group (B), Group Average): 1.559 | ELISA test antigen C Clade (C Clade; group (B), individual mouse): 2.575 and 0.837 and 1.711 and 2.254 and 0.911 and 1.070 | ELISA signal on C Clade (C Clade; [5]): 1.454 and 0.127 and 0.427 and 0.073 and 1.592 and 0.651 and 1.365 and 1.139 and 0.008 and 1.191
